Experimental data published in patent US10173999B2, “Cyclic amine derivative and pharmaceutical use thereof” (Toray Industries, Inc., priority 2015, dated 2019).
“Also recorded” adds a separate entry of the source. Where a name gives a salt, the structure may show the parent alone.

System: fibromyalgia syndrome model rats
Test: Rat fibromyalgia syndrome model (acidic saline), allodynia by von Frey filament
Type: in vivo
Settings: for allodynia (50% response threshold) vs acidic saline+distilled water group: Day 7, pregabalin 10 mg/kg
Protocol: To prepare a fibromyalgia syndrome model rat (Sluka et al., Journal of Pharmacology and Experimental Therapeutics, vol. 302, p. 1146-1150, 2002; Nagakura et al., Pain, vol. 146, p. 26-33, 2009; Sluka et al., Pain, vol. 146, p. 3-4, 2009), which is generally employed widely in basic research for fibromyalgia syndrome, acidic saline (100 μL) adjusted to pH 4.0 was intramuscularly injected to the gastrocnemius muscle of the right hind paw of Crl: CD(SD) rat (6 to 7 weeks old, male; from CHARLES RIVER LABORATORIES JAPAN, INC.) under continuous inhalation anesthesia with isoflurane, twice (once in each day of Day 1 and Day 6, wherein Day 1 was the date on which the acidic saline was initially administrated). The rats thus prepared were raised in a breeding room controlled at an indoor temperature of 21 to 25° C. and an indoor humidity of 40 to 70% under the conditions of voluntary intake of food and water. In the same manner, rats to which physiological saline in place of acidic saline was intramuscularly injected were raised. The rats thus raised and not afflicted with fibromyalgia syndrome (“physiological saline+distilled water” group in FIG. 13) were also used in the experiment.
Seven days after the initial administration of acidic saline, allodynia in each rat was measured. […] Note that, measurement of allodynia was performed by use of a von Frey filament (from North Coast Medical) in accordance with the method described in a known literature (Chaplan et al., Journal of Neuroscience Methods, vol. 53, p. 55-63, 1994).
The fibromyalgia syndrome model rats thus obtained are divided into groups such that the 50% response threshold (mean value of the right hind paw and the left hind paw) of the individual groups became equal, and a test compound was administered to the fibromyalgia syndrome model rats on Day 7 after the initial administration of acidic saline.
The compound of Example 11 (0.1 to 10 mg/kg) was dissolved in distilled water and then orally administered to fibromyalgia syndrome model rats (“acidic saline+the compound of Example 11” in FIG. 13). Pregabalin serving as a positive control (10 mg/kg; from KEMPROTEC) was dissolved in distilled water and then orally administered (“acidic saline+pregabalin” in FIG. 13). As a control, distilled water was orally administered to fibromyalgia syndrome model rats (“acidic saline+distilled water” in FIG. 13). Furthermore, distilled water was orally administered to rats not afflicted with fibromyalgia syndrome (“physiological saline+distilled water” in FIG. 13). One hour and three hours after the oral administration, allodynia in individual rats was measured to evaluate an analgesic action. At this time, the 50% response threshold value in the measurement of allodynia before oral administration of the test compound on Day 7 after initial administration of acidic saline was defined as the pre-value.
To prepare a fibromyalgia syndrome model rat (Sluka et al., Journal of Pharmacology and Experimental Therapeutics, vol. 302, p. 1146-50, 2002; Nagakura et al., Pain, vol. 146, p. 26-33, 2009; Sluka et al., Pain, vol. 146, p. 3-4, 2009), which is generally employed widely in basic research for fibromyalgia syndrome, acidic saline (100 μL) adjusted to pH 4.0 was intramuscularly injected to the gastrocnemius muscle of the right hind paw of Slc: (SD) rats (6 to 7 weeks old, male; from Japan SLC, Inc.) under continuous inhalation anesthesia with isoflurane, twice (once in each of Day 1 and Day 6, wherein Day 1 was the initial administration date of the acidic saline). The rats thus prepared were raised in a breeding room controlled at an indoor temperature of 21 to 25° C. and an indoor humidity of 40 to 70% under the conditions of voluntary intake of food and water. In the same manner, rats to which physiological saline was intramuscularly injected in place of acidic saline were raised. […]

SMILES: CN(C)C1CCN(C(=O)CCc2nccn2C)CC1 [Comparative Example 1, 1-(4-(dimethylamino)piperidin-1-yl)-3-(1-methyl-1H-imidazol-2-yl)propan-1-one hydrochloride]
- allodynia (50% response threshold) vs acidic saline+distilled water group (Comparative Example 8: oral, Comparative Example 1 0.1 to 1 mg/kg, 1, 2 and 3 h after dosing, hydrochloride): statistically significantly improved; also recorded: statistically significant analgesic action
- persistence of analgesic action (oral administration): tended to significantly decrease 3 hours after oral administration

SMILES: CN(C)C1CCN(C(=O)C[C@H](O)c2nccn2C)CC1 [Example 11, (S)-1-(4-(dimethylamino)piperidin-1-yl)-3-hydroxy-3-(1-methyl-1H-imidazol-2-yl)propan-1-one]
- allodynia (50% response threshold) vs acidic saline+distilled water group (Example 15: oral, Example 11 0.1 to 10 mg/kg, 1 and 3 h after dosing): statistically significantly improved; also recorded: statistically significant analgesic action
- time the analgesic action lasted after oral administration (oral administration): 3 h
